pKi: −log10 of the molar value. Structures can show the parent of a compound that is named as a salt.
How the values were obtained:
[1] = molecular target: sigma-2 site (Homo sapiens, UniProt Q5BJF2); conditions: background statement; cited from earlier work
[2] = molecular target: T1, human σ1 receptor (Homo sapiens, UniProt Q99720); experiment: Human σ1 receptor radioligand assay ([3H](+)-pentazocine); format: binding; conditions: transfected HEK-293 membranes, 5 nM [3H](+)-pentazocine, 37° C., 120 minutes; read-out: Binding σ-[…] (binding to σ1-receptor expressed as Ki)
T1 construct: expressed in transfected cells; host or cells: HEK-293
T1 sequence (Q99720 whole entry): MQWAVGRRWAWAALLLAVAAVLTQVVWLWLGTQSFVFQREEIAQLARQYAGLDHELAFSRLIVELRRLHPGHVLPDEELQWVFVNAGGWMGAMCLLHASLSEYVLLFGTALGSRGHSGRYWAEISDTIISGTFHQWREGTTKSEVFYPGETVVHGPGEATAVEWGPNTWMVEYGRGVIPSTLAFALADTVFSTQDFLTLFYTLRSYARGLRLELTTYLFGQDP
In short: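 Binding used [3H](+)-pentazocine, 120 min at 37° C, with non-specific binding defined by 10 μM haloperidol. Bound radioligand was collected by filtration, washed with ice-cold 10 mM Tris-HCl pH 7.4 and counted by scintillation.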

[3] = molecular target: T2, human σ2/TMEM97 receptor (Homo sapiens, UniProt Q5BJF2); experiment: Binding assay to human σ2/TMEM97 receptor ([3H]-DTG); conditions: transfected HEK-293 membranes, 10 nM [3H]-DTG, 25° C., 120 minutes; read-out: Binding σ-[…] (binding to σ2-receptor expressed as Ki)
T2 construct: expressed in transfected cells; host or cells: HEK-293
T2 sequence (Q5BJF2 whole entry): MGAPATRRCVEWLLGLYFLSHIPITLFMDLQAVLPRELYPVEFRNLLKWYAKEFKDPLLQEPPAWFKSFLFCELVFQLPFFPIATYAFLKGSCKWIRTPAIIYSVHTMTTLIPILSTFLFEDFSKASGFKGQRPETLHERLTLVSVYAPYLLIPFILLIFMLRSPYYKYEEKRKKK
In short: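 Membranes from transfected HEK-293 cells incubated with 10 nM [3H]-DTG in 50 mM Tris-HCl pH 8.0, 120 min at 25 °C; non-specific binding defined with 10 μM haloperidol. Bound radioactivity counted after filtration; compounds tested as % inhibition at 1 or 10 μM or at five concentrations for Ki.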

[4] = test system: mechanical hypersensitivity in SNI mice; conditions: SNI mice model of neuropathic pain; cited from earlier work

Chain of sigma-2 site (Q5BJF2 whole entry): as above

Row | Compound | affinity for the sigma-2 site [1] | pKi [2] | pKi [3] | mechanical hypersensitivity [4]
1 | (+)-SKF-10047 | micromolar affinity | – | – | –
2 | Cc1ccc2c(n1)C(C)(C)CN2C(=O)[C@H]1CC[C@H](N(C)Cc2ccc(C(F)(F)F)nc2)CC1 [Example 184, ((1r,4r)-4-(methyl((6-(trifluoromethyl)pyridin-3-yl)methyl)amino)cyclohexyl)(3,3,5-trimethyl-2,3-dihydro-1H-pyrrolo[3,2-b]pyridin-1-yl)methanone] | – | > 7.00 | > 7.00 | –
3 | UKH-1114 | – | – | – | relieved mechanical hypersensitivity
4 | CC1(C)CN(C(=O)NC2CCN(Cc3ccc(F)cc3)CC2)c2cccnc21 [Example 48, N-(1-(4-fluorobenzyl)piperidin-4-yl)-3,3-dimethyl-2,3-dihydro-1H-pyrrolo[3,2-b]pyridine-1-carboxamide] | – | > 7.00 | < 6.00 | –
5 | O=C(N1CCC[C@H](NCCc2ccccc2)C1)N1CCc2ncccc21 [Example 101, (S)-(2,3-dihydro-1H-pyrrolo[3,2-b]pyridin-1-yl)(3-(phenethylamino)piperidin-1-yl)methanone] | – | < 6.00 | 6.30 to 7.00 | –
6 | CC1(C)CN(C(=O)N2CCC3(CCN(Cc4cc(C#N)c(F)cc4F)CC3)CC2)c2cccnc21 [Example 167, 5-((9-(3,3-dimethyl-2,3-dihydro-1H-pyrrolo[3,2-b]pyridine-1-carbonyl)-3,9-diazaspiro[5.5]undecan-3-yl)methyl)-2,4-difluorobenzonitrile] | – | > 7.00 | > 7.00 | –
7 | Cc1ccc2c(n1)C(C)(C)CN2C(=O)NC1CCN(Cc2ccc(F)cc2)CC1 [Example 22, N-(1-(4-fluorobenzyl)piperidin-4-yl)-3,3,5-trimethyl-2,3-dihydro-1H-pyrrolo[3,2-b]pyridine-1-carboxamide] | – | > 7.00 | 6.00 to 6.30 | –
8 | CN(Cc1ccccc1)[C@H]1CC[C@H](N(C)C(=O)N2CC(C)(C)c3ncccc32)CC1 [Example 78, N-((1r,4r)-4-(benzyl(methyl)amino)cyclohexyl)-N,3,3-trimethyl-2,3-dihydro-1H-pyrrolo[3,2-b]pyridine-1-carboxamide] | – | 6.00 to 6.30 | > 7.00 | –
9 | CN(CCc1ccccc1)[C@H]1CCCN(C(=O)N2CCc3ncccc32)C1 [Example 53, (S)-(2,3-dihydro-1H-pyrrolo[3,2-b]pyridin-1-yl)(3-(methyl(phenethyl)amino)piperidin-1-yl)methanone] | – | 6.30 to 7.00 | 6.30 to 7.00 | –
10 | CN(Cc1ccc(C#N)c(F)c1)C1CCN(C(=O)N2CC(C)(C)c3ncccc32)CC1 [Example 87, 4-(((1-(3,3-dimethyl-2,3-dihydro-1H-pyrrolo[3,2-b]pyridine-1-carbonyl)piperidin-4-yl)(methyl)amino)methyl)-2-fluorobenzonitrile] | – | 6.00 to 6.30 | > 7.00 | –
11 | Cc1ccc2c(n1)C(C)(C)CN2C(=O)N1CCC2(CCN(Cc3ccccn3)CC2)C1 [Example 94, (8-(pyridin-2-ylmethyl)-2,8-diazaspiro[4.5]decan-2-yl)(3,3,5-trimethyl-2,3-dihydro-1H-pyrrolo[3,2-b]pyridin-1-yl)methanone] | – | < 6.00 | 6.30 to 7.00 | –
12 | CN(Cc1cccc(F)c1)C1CCN(C(=O)N2CC(C)(C)c3ncccc32)CC1 [Example 85, (3,3-dimethyl-2,3-dihydro-1H-pyrrolo[3,2-b]pyridin-1-yl)(4-((3-fluorobenzyl)(methyl)amino)piperidin-1-yl)methanone] | – | 6.00 to 6.30 | 6.30 to 7.00 | –
13 | Cc1ccc2c(n1)C(C)(C)CN2C(=O)N1C[C@H]2CN(Cc3ccccc3)C[C@H]2C1 [Example 36, ((3aR,6aS)-5-benzylhexahydropyrrolo[3,4-c]pyrrol-2(1H)-yl)(3,3,5-trimethyl-2,3-dihydro-1H-pyrrolo[3,2-b]pyridin-1-yl)methanone] | – | 6.30 to 7.00 | 6.00 to 6.30 | –
14 | Cc1ccc2c(n1)C(C)(C)CN2C(=O)NC1CCN(Cc2cccc(Cl)c2)CC1 [Example 55, N-(1-(3-chlorobenzyl)piperidin-4-yl)-3,3,5-trimethyl-2,3-dihydro-1H-pyrrolo[3,2-b]pyridine-1-carboxamide] | – | > 7.00 | 6.30 to 7.00 | –
15 | CN(C)[C@@H](CNC(=O)N1CC(C)(C)c2ncccc21)c1ccccc1 [Example 5, (R)—N-(2-(dimethylamino)-2-phenylethyl)-3,3-dimethyl-2,3-dihydro-1H-pyrrolo[3,2-b]pyridine-1-carboxamide] | – | 6.30 to 7.00 | < 6.00 | –
16 | CC1(C)CN(C(=O)N2CCC3(CCN(Cc4ccc(F)cn4)CC3)C2)c2cccnc21 [Example 154, (3,3-dimethyl-2,3-dihydro-1H-pyrrolo[3,2-b]pyridin-1-yl)(8-((5-fluoropyridin-2-yl)methyl)-2,8-diazaspiro[4.5]decan-2-yl)methanone] | – | 6.30 to 7.00 | > 7.00 | –
17 | Cc1ccc2c(n1)C(C)(C)CN2C(=O)[C@H]1CC[C@H](N(C)Cc2ccc(F)c(C#N)c2)CC1 [Example 181, 2-fluoro-5-((methyl((1r,4r)-4-(3,3,5-trimethyl-2,3-dihydro-1H-pyrrolo[3,2-b]pyridine-1-carbonyl)cyclohexyl)amino)methyl)benzonitrile] | – | > 7.00 | > 7.00 | –
18 | CC1(C)CN(C(=O)N2CCC3(CCN(Cc4ccc(C#N)cc4)CC3)C2)c2cccnc21 [Example 151, 4-((2-(3,3-dimethyl-2,3-dihydro-1H-pyrrolo[3,2-b]pyridine-1-carbonyl)-2,8-diazaspiro[4.5]decan-8-yl)methyl)benzonitrile] | – | > 7.00 | > 7.00 | –
19 | CC1(C)CN(C(=O)[C@H]2CC[C@H](NCc3ccccc3)CC2)c2cccnc21 [Example 128, ((1r,4r)-4-(benzylamino)cyclohexyl)(3,3-dimethyl-2,3-dihydro-1H-pyrrolo[3,2-b]pyridin-1-yl)methanone dihydrochloride] | – | > 7.00 | 6.30 to 7.00 | –
20 | CN(CCc1ccccc1)[C@H]1CCN(C(=O)N2CCc3ncccc32)C1 [Example 62, (S)-(2,3-dihydro-1H-pyrrolo[3,2-b]pyridin-1-yl)(3-(methyl(phenethyl)amino)pyrrolidin-1-yl)methanone] | – | < 6.00 | 6.00 to 6.30 | –
21 | Cc1ccc2c(n1)C(C)(C)CN2C(=O)N1CCC(N(C)Cc2ccncc2)CC1 [Example 75, (4-(methyl(pyridin-4-ylmethyl)amino)piperidin-1-yl)(3,3,5-trimethyl-2,3-dihydro-1H-pyrrolo[3,2-b]pyridin-1-yl)methanone] | – | < 6.00 | 6.00 to 6.30 | –
22 | Cc1ccc2c(n1)C(C)(C)CN2C(=O)N1CCC(N(C)Cc2ccccn2)CC1 [Example 73, (4-(methyl(pyridin-2-ylmethyl)amino)piperidin-1-yl)(3,3,5-trimethyl-2,3-dihydro-1H-pyrrolo[3,2-b]pyridin-1-yl)methanone] | – | < 6.00 | 6.00 to 6.30 | –
23 | Cc1ccc2c(n1)C(C)(C)CN2C(=O)[C@H]1C[C@@H](NCc2ccccc2)C1 [Example 136, ((1s,3s)-3-(benzylamino)cyclobutyl)(3,3,5-trimethyl-2,3-dihydro-1H-pyrrolo[3,2-b]pyridin-1-yl)methanone] | – | 6.30 to 7.00 | 6.30 to 7.00 | –

— US20240174671A1, “New 2,3-Dihydro-1H-pyrrolo[3,2-b]pyridine Derivatives as Sigma Ligands” (ACONDICIONAMIENTO TARRASENSE, priority 2021, published 2024)
